According to patent EP1914309A1 (priority 2006, dated 2008):

Columns and labels:
X4 tropic virus = settings: mixture of viral envelopes from reference viruses NL4-3 and JR-CSF; infection via CXCR4; inhibitor at saturating dose; Figure 5
Protocol: Viral supernatants are used to infect U373MG-CD4 indicator cells expressing either the CCR5 or CXCR4 co-receptor (U373-CCR5 or U373-CXCR4), in presence or absence of co-receptor inhibitors at a saturating dose. The indicator cells contain the lacZ gene under control of the HIV-1 LTR which allows the determination of viral infection and thus of viral tropism using a colorimetric assay based on the expression of the β-galactosidase by Tat (see Figure 4).
In the RVA tropism, viral infection is detected independently for both co-receptors. A sample is considered positive when the ratio [OD sample/ OD control] reaches or exceeds 1.5 (the control being an R5-tropic virus on CXCR4+ cells or a X4-tropic virus on CCR5+ cells).
On the day of infection, the condition of the indicator U373-CCR5 and U373-CXCR4 cells is verified. CXCR4- and CCR5-inhibitors are prepared at 4x their final concentrations used in the test (e.g. 4x AMD-3100 at 8 µg/ml). […]
The β-galactosidase produced by the infected U373-CCR5 or U373-CXCR4 cells is quantified: the level of marker expressed is quantified by measuring the β-galactosidase activity by using a CPRG (chlorophenolred-β-D-galactopyranoside) substrate. […]

HIV-1 = settings: concentration at which cell infection by a virus having tropism for said cell is 100% blocked
Text: A "saturating dose of an inhibitor" denotes a concentration of inhibitor at which cell infection by a virus having tropism for said cell is 100% blocked by the inhibitor, which is function of the inhibitor.

c1cc(CN2CCCNCCNCCCNCC2)ccc1CN1CCCNCCNCCCNCC1 [AMD3100]
inhibition of infection (X4 tropic virus): 100%
saturating dose of an inhibitor (HIV-1): up to 2 µg/ml
